Assays:
Type in all cases: cell-based
[1] = system: KRas-mediated Phosphorylation of ERK in HCT116 cells; test: Cisbio HTRF pERK assay, HCT116 cells; conditions: single point at 100 nM; for inhibition at 0.1 µM: Homo sapiens, HCT-116, HCT116 cells
[2] = system: KRas-mediated Phosphorylation of ERK in A549 cells; test: Cisbio HTRF pERK assay, A549 cells; conditions: Homo sapiens, A549, A549 cells, single point at 100 nM
[3] = system: KRas-mediated Phosphorylation of ERK in H358 cells; test: Cisbio HTRF pERK assay, H358 cells; conditions: Homo sapiens, NCI-H358, H358 cells, single point at 100 nM
[4] = system: KRas-mediated Phosphorylation of ERK in H460 cells; test: Cisbio HTRF pERK assay, H460 cells; conditions: single point at 100 nM; for inhibition at 0.1 µM: Homo sapiens, NCI-H460, H460 cells

SMILES	Inhibition (HTRF % at 100 nM) of KRas-mediated Phosphorylation of ERK, HCT116 ([1]; HCT116 cells, 0.1 µM)	inhibition at 0.1 µM [2]	inhibition at 0.1 µM [3]	Inhibition (HTRF % at 100 nM) of KRas-mediated Phosphorylation of ERK, H460 ([4]; H460 cells, 0.1 µM)	inhibition at 0.1 µM [1]	inhibition at 0.1 µM [4]
CCc1c(F)ccc2cc(O)cc(-c3c(F)cc4c(N5C[C@@H]6C[C@H](C5)[C@H](O)C6)nc(OC[C@@]56CCCN5C[C@H](F)C6)nc4c3F)c12 (atropisomer, axis not shown; (aS)) [Example 67, (1R,5R,6R)-3-((R)-7-(8-ethyl-7-fluoro-3-hydroxynaphthalen-1-yl)-6,8-difluoro-2-(((2R,7aS)-2-fluorohexahydro-1H-pyrrolizin-7a-yl)methoxy)quinazolin-4-yl)-3-azabicyclo[3.2.1]octan-6-ol]	73%	81%	94%	95%	–	–
CCc1c(F)ccc2cc(O)cc(-c3ccc4c(N5CCOCC(C)(O)C5)nc(OCC5(CN(C)C)CC5)nc4c3F)c12 (stereo not shown) [Example 42, 4-(2-((1-((dimethylamino)methyl)cyclopropyl)methoxy)-7-(8-ethyl-7-fluoro-3-hydroxynaphthalen-1-yl)-8-fluoroquinazolin-4-yl)-6-methyl-1,4-oxazepan-6-ol]	–	39%	71%	–	30%	59%
CCc1c(F)ccc2cc(O)cc(-c3c(F)cc4c(N5CCC[C@@](C)(O)C5)nc(OCC56CCCN5CCC6)nc4c3F)c12 [Example 48, (3R)-1-(7-(8-ethyl-7-fluoro-3-hydroxynaphthalen-1-yl)-6,8-difluoro-2-((tetrahydro-1H-pyrrolizin-7a(5H)-yl)methoxy)quinazolin-4-yl)-3-methylpiperidin-3-ol]	–	–	–	–	50%	75%
CCc1c(F)ccc2cc(O)cc(-c3c(F)cc4c(N5CCCC6(CNC(=O)N6)C5)nc(OCC5(CN(C)C)CC5)nc4c3F)c12 (stereo not shown) [Example 49, 7-(2-((1-((dimethylamino)methyl)cyclopropyl)methoxy)-7-(8-ethyl-7-fluoro-3-hydroxynaphthalen-1-yl)-6,8-difluoroquinazolin-4-yl)-1,3,7-triazaspiro[4.5]decan-2-one]	–	–	–	–	13%	23%
CCc1c(F)ccc2cc(O)cc(-c3c(F)cc4c(N5CCCC6(CNS(=O)(=O)N6)C5)nc(OCC5(CN(C)C)CC5)nc4c3F)c12 (stereo not shown) [Example 50, 7-(2-((1-((dimethylamino)methyl)cyclopropyl)methoxy)-7-(8-ethyl-7-fluoro-3-hydroxynaphthalen-1-yl)-6,8-difluoroquinazolin-4-yl)-2-thia-1,3,7-triazaspiro[4.5]decane 2,2-dioxide]	–	-17%	3%	–	-3%	38%
CCc1c(F)ccc2cc(O)cc(-c3c(F)cc4c(N5CCOCC(C)(O)C5)nc(OCC5(CN(C)C)CC5)nc4c3F)c12 (stereo not shown) [Example 56, 4-(2-((1-((dimethylamino)methyl)cyclopropyl)methoxy)-7-(8-ethyl-7-fluoro-3-hydroxynaphthalen-1-yl)-6,8-difluoroquinazolin-4-yl)-6-methyl-1,4-oxazepan-6-ol]	–	47%	87%	–	51%	86%
CCc1c(F)ccc2cc(O)cc(-c3c(F)cc4c(N5CCCn6nc(C(=O)N7CCCC7)cc6C5)nc(OC[C@@]56CCCN5C[C@H](F)C6)nc4c3F)c12 [Example 58, (5-(7-(8-ethyl-7-fluoro-3-hydroxynaphthalen-1-yl)-6,8-difluoro-2-(((2R,7aS)-2-fluorotetrahydro-1H-pyrrolizin-7a(5H)-yl)methoxy)quinazolin-4-yl)-5,6,7,8-tetrahydro-4H-pyrazolo[1,5-a][1,4]diazepin-2-yl)(pyrrolidin-1-yl)methanone]	–	–	–	–	12%	58%
CCc1c(F)ccc2cc(O)cc(-c3c(F)cc4c(N5CCCn6nc(C(=O)NC(C)C)cc6C5)nc(OC[C@@]56CCCN5C[C@H](F)C6)nc4c3F)c12 [Example 59, 5-(7-(8-ethyl-7-fluoro-3-hydroxynaphthalen-1-yl)-6,8-difluoro-2-(((2R,7aS)-2-fluorotetrahydro-1H-pyrrolizin-7a(51)-yl)methoxy)quinazolin-4-yl)-N-isopropyl-5,6,7,8-tetrahydro-4H-pyrazolo[1,5-a][1,4]diazepine-2-carboxamide]	–	–	–	–	23%	36%
CCc1c(F)ccc2cc(O)cc(-c3c(F)cc4c(N5CCCn6nncc6C5)nc(OC[C@@]56CCCN5C[C@H](F)C6)nc4c3F)c12 [Example 61, 4-(4-(7,8-dihydro-4H-[1,2,3]triazolo[1,5-a][1,4]diazepin-5(6H)-yl)-6,8-difluoro-2-(((2R,7aS)-2-fluorotetrahydro-1H-pyrrolizin-7a(5H)-yl)methoxy)quinazolin-7-yl)-5-ethyl-6-fluoronaphthalen-2-ol]	–	–	–	–	9%	36%
CCc1c(F)ccc2cc(O)cc(-c3c(F)cc4c(N5CCCC6(CC(=O)NC6=O)C5)nc(OC[C@@]56CCCN5C[C@H](F)C6)nc4c3F)c12 (stereo partly drawn) [Example 62, 7-(7-(8-ethyl-7-fluoro-3-hydroxynaphthalen-1-yl)-6,8-difluoro-2-(((2R,7aS)-2-fluorotetrahydro-1H-pyrrolizin-7a(5H)-yl)methoxy)quinazolin-4-yl)-2,7-azaspiro[4.5]decane-1,3-dione]	–	72%	96%	–	92%	98%
O=S1(=O)NCC2(CCCN(c3nc(OC[C@@]45CCCN4C[C@H](F)C5)nc4c(F)c(-c5cc(O)cc6ccc(F)c(Cl)c56)ccc34)C2)N1 (stereo partly drawn) [Example 72, 7-(7-(8-chloro-7-fluoro-3-hydroxynaphthalen-1-yl)-8-fluoro-2-(((2R,7aS)-2-fluorohexahydro-1H-pyrrolizin-7a-yl)methoxy)quinazolin-4-yl)-2-thia-1,3,7-triazaspiro[4.5]decane 2,2-dioxide]	–	76%	98%	–	69%	87%
CCc1c(F)ccc2cc(O)cc(-c3c(F)cc4c(N5CCCn6nc(C(=O)N7CCOCC7)c(Cl)c6C5)nc(OC[C@@]56CCCN5C[C@H](F)C6)nc4c3F)c12 [Example 79, (3-chloro-5-(7-(8-ethyl-7-fluoro-3-hydroxynaphthalen-1-yl)-6,8-difluoro-2-(((2R,7aS)-2-fluorohexahydro-1H-pyrrolizin-7a-yl)methoxy)quinazolin-4-yl)-5,6,7,8-tetrahydro-4H-pyrazolo[1,5-a][1,4]diazepin-2-yl)(morpholino)methanone]	–	60%	95%	–	64%	85%
CCc1c(F)ccc2cc(O)cc(-c3c(F)cc4c(N5CCCn6nc(C(=O)N(C)C)c(C)c6C5)nc(OC[C@@]56CCCN5C[C@H](F)C6)nc4c3F)c12 [Example 80, 5-(7-(8-ethyl-7-fluoro-3-hydroxynaphthalen-1-yl)-6,8-difluoro-2-(((2R,7aS)-2-fluorohexahydro-1H-pyrrolizin-7a-yl)methoxy)quinazolin-4-yl)-N,N,3-trimethyl-5,6,7,8-tetrahydro-4H-pyrazolo[1,5-a][1,4]diazepine-2-carboxamide]	–	83%	95%	–	71%	89%
CCc1c(F)ccc2cc(O)cc(-c3c(F)cc4c(N5CCCn6nc(C(=O)NC)c(C)c6C5)nc(OC[C@@]56CCCN5C[C@H](F)C6)nc4c3F)c12 [Example 81, 5-(7-(8-ethyl-7-fluoro-3-hydroxynaphthalen-1-yl)-6,8-difluoro-2-(((2R,7aS)-2-fluorohexahydro-1H-pyrrolizin-7a-yl)methoxy)quinazolin-4-yl)-N,3-dimethyl-5,6,7,8-tetrahydro-4H-pyrazolo[1,5-a][1,4]diazepine-2-carboxamide]	–	62%	98%	–	32%	26%
CCc1c(F)ccc2cc(O)cc(C3Cc4nc(OC[C@@]56CCCN5C[C@H](F)C6)nc(N5CCC[C@@](C)(O)C5)c4CO3)c12 (stereo partly drawn) [Example 85, (3R)-1-(7-(8-ethyl-7-fluoro-3-hydroxynaphthalen-1-yl)-2-(((2R,7aS)-2-fluorotetrahydro-1H-pyrrolizin-7a(5H)-yl)methoxy)-7,8-dihydro-5H-pyrano[4,3-d]pyrimidin-4-yl)-3-methylpiperidin-3-ol]	–	21%	-7%	–	-12%	16%
CCc1c(F)ccc2cc(O)cc(C3Cc4nc(OC[C@@]56CCCN5C[C@H](F)C6)nc(N5C[C@@H]6C[C@H](C5)[C@H](O)C6)c4CO3)c12 (stereo partly drawn) [Example 86, (1R,5R,6R)-3-(7-(8-ethyl-7-fluoro-3-hydroxynaphthalen-1-yl)-2-(((2R,7aS)-2-fluorotetrahydro-1H-pyrrolizin-7a(5H)-yl)methoxy)-7,8-dihydro-5H-pyrano[4,3-d]pyrimidin-4-yl)-3-azabicyclo[3.2.1]octan-6-ol]	–	0%	-14%	–	-12%	-1%
CCc1c(F)ccc2cc(O)cc(C3Cc4nc(OC[C@@]56CCCN5C[C@H](F)C6)nc(N5CCCC6(C5)NC(=O)NC6=O)c4CO3)c12 (stereo partly drawn) [Example 87, 7-(7-(8-ethyl-7-fluoro-3-hydroxynaphthalen-1-yl)-2-(((2R,7aS)-2-fluorotetrahydro-1H-pyrrolizin-7a(5H)-yl)methoxy)-7,8-dihydro-5H-pyrano[4,3-d]pyrimidin-4-yl)-1,3,7-triazaspiro[4.5]decane-2,4-dione]	–	16%	30%	–	-5%	-8%

Reference: patent US20240025907A1, “QUINAZOLINE PAN-KRas INHIBITORS” (Mirati Therapeutics, Inc., priority 2022, published 2024)
